Assay results as given in patent US20150031102A1, “METHODS AND COMPOSITIONS FOR ENHANCED PRODUCTION OF BUTANOL BY CLOSTRIDIA” (Butrolix LLC, priority 2012, published 2015).

System: Clostridium acetobutylicum strain ATCC 824
Assay: Sequential batch transfer in 24-well culture plates (butanol, residual glucose, butanol yield and productivity)
Type: cell-based
Conditions: after 96 hours of culture; for Residual glucose concentration: initial glucose 60 g/L; for Butanol: Experiment 1
Protocol: Each well contained 1.5 mL of growth medium. Peptide was added to each well at the indicated concentration (0, 25, 50, and 100 nM). Every 24 hours fresh medium and peptide treatment were added to a new column of wells then 1.5 μL of the previous day culture was transferred to the new well. Wells were harvested for glucose and butanol analysis after 96 hours of growth. Transfers 1, 4, 7, 10, 13, 16, […].
Briefly, Clostridium spores were germinated in a suitable growth medium for 18-24 hours then […] was transferred to 1.5 mL of fresh medium in each of four wells on a 24-well culture plate. Three of the wells had been treated with 25 nM, 50 nM and 100 nM of peptide, respectively while the fourth well was untreated. Thereafter, every 24 hours […] of each subculture was transferred to 1.5 mL of fresh medium that contained the same peptide treatment or no treatment. Transfers of successive subcultures were done for 24 days, and each subculture was grown for 96 hours before being harvested. Culture supernatants were recovered following centrifugation and were analyzed for butanol and residual glucose concentrations. Determination of optimum peptide treatment levels was based on a graphical comparison of the concentration of butanol in each of the four culture wells for sequential transfers 1, 4, 7, 10, 13, 16, 19, 22 and 24.
Clostridium acetobutylicum strain ATCC 824 was used in all experiments and the growth medium used for sequential batch transfer, time course, and continuous culture experiments contained yeast extract, casamino acids, L-cysteine, L-asparagine, phosphate buffer, trace minerals, and 6% glucose. What are believed to be quorum-sensing peptides that were used in the experiments were chemically synthesized peptides SEQ ID NO: 143 (amino acid sequence: SYPGWSW) and SEQ ID NO: 144 (amino acid sequence: ILILISG). Routine growth of the bacteria as well as the sequential batch and time course experiments were conducted in a Form a Scientific Model 1029 anaerobic gas chamber at 32° C. Continuous cultures were performed at 32° C. using duplicate New Brunswick Scientific BioFlo 3000 apparati with a dilution rate of 0.01 volume per hour, 75 rpm agitation, and nitrogen gas sparging. Optical density of culture samples was measured at 600 nm in a Beckman DU 600 series spectrophotometer and glucose was analyzed using a YSI Model 2700 Select Biochemistry Analyzer with internal glucose calibration. Butanol concentrations were determined by measuring experimental and standard samples using a Varian Saturn 3 Gas Chromatograph/Mass Spectrometer and calculating butanol concentrations using standard curves.
(§1) Sequential batch transfer experiments were carried out in 24-well culture plates that contained 1.5 mL of medium per well. Peptide was added to each well at the indicated concentrations of 0 nM (control), 25 nM, 50 nM, or 100 nM. Every 24 hours, fresh medium and peptide treatments were added to a new column of wells. Then, 1.5 uL of the previous day culture was transferred to the new well. Wells were harvested for glucose and butanol analysis after 96 hours of growth; transfers 1, 4, 7, 10, 13, 16, 19, 22, and 24 were analyzed. Two representative experiments are shown in Tables 30 and 31 and FIGS. 14 and 15.
as §1, with “32” for “30”, “33” for “31”, “16” for “14”, “17.” for “15.”

[1] = 25 nM peptide, transfer 1, Expt. 2 (repeat)
[2] = 25 nM peptide, transfer 4, Expt. 2 (repeat)
[3] = 25 nM peptide, transfer 7, Expt. 2 (repeat)
[4] = 25 nM peptide, transfer 10, Expt. 2 (repeat)
[5] = 25 nM peptide, transfer 13, Expt. 2 (repeat)
[6] = 25 nM peptide, transfer 16, Expt. 2 (repeat)
[7] = 25 nM peptide, transfer 19, Expt. 2 (repeat)
[8] = 25 nM peptide, transfer 22, Expt. 2 (repeat)
[9] = 25 nM peptide, transfer 24, Expt. 2 (repeat)
[10] = 25 nM, transfer 1, first experiment
[11] = 25 nM, transfer 4, first experiment
[12] = 25 nM, transfer 7, first experiment
[13] = 25 nM, transfer 10, first experiment
[14] = 25 nM, transfer 13, first experiment
[15] = 25 nM, transfer 16, first experiment
[16] = 25 nM, transfer 19, first experiment
[17] = 25 nM, transfer 22, first experiment
[18] = 25 nM, transfer 24, first experiment
[19] = 50 nM peptide, transfer 1, Expt. 2 (repeat)
[20] = 50 nM peptide, transfer 4, Expt. 2 (repeat)
[21] = 50 nM peptide, transfer 7, Expt. 2 (repeat)
[22] = 50 nM peptide, transfer 10, Expt. 2 (repeat)
[23] = 50 nM peptide, transfer 13, Expt. 2 (repeat)
[24] = 50 nM peptide, transfer 16, Expt. 2 (repeat)
[25] = 50 nM peptide, transfer 19, Expt. 2 (repeat)
[26] = 50 nM peptide, transfer 22, Expt. 2 (repeat)
[27] = 50 nM peptide, transfer 24, Expt. 2 (repeat)
[28] = 50 nM, transfer 1, first experiment
[29] = 50 nM, transfer 4, first experiment
[30] = 50 nM, transfer 7, first experiment

Substance: SYPGWSW [peptide SEQ ID NO: 143]
- Butanol concentration [1]: 0.75 g/L
- Butanol productivity [1]: 0.01 g butanol/L-h
- Butanol yield [1]: 0.01 g butanol/g/glucose
- Residual glucose concentration [1]: 49.0 g/L
- Butanol concentration [2]: 1.40 g/L
- Butanol productivity [2]: 0.01 g butanol/L-h
- Butanol yield [2]: 0.02 g butanol/g/glucose
- Residual glucose concentration [2]: 43.5 g/L
- Butanol concentration [3]: 1.83 g/L
- Butanol productivity [3]: 0.02 g butanol/L-h
- Butanol yield [3]: 0.03 g butanol/g/glucose
- Residual glucose concentration [3]: 48.9 g/L
- Butanol concentration [4]: 2.93 g/L
- Butanol productivity [4]: 0.03 g butanol/L-h
- Butanol yield [4]: 0.05 g butanol/g/glucose
- Residual glucose concentration [4]: 43.9 g/L
- Butanol concentration [5]: 2.89 g/L
- Butanol productivity [5]: 0.03 g butanol/L-h
- Butanol yield [5]: 0.05 g butanol/g/glucose
- Residual glucose concentration [5]: 44.7 g/L
- Butanol concentration [6]: 6.32 g/L
- Butanol productivity [6]: 0.07 g butanol/L-h
- Butanol yield [6]: 0.11 g butanol/g/glucose
- Residual glucose concentration [6]: 39.1 g/L
- Butanol concentration [7]: 2.65 g/L
- Butanol productivity [7]: 0.03 g butanol/L-h
- Butanol yield [7]: 0.05 g butanol/g/glucose
- Residual glucose concentration [7]: 44.1 g/L
- Butanol concentration [8]: 6.86 g/L
- Butanol productivity [8]: 0.07 g butanol/L-h
- Butanol yield [8]: 0.12 g butanol/g/glucose
- Residual glucose concentration [8]: 0.1 g/L
- Butanol concentration [9]: 5.33 g/L
- Butanol productivity [9]: 0.06 g butanol/L-h
- Butanol yield [9]: 0.09 g butanol/g/glucose
- Residual glucose concentration [9]: 16.0 g/L
- Butanol (25 nM, transfer 1): 1.21 g/L
- Butanol productivity [10]: 0.01 g butanol/L-h
- Butanol yield [10]: 0.02 g butanol/g/glucose
- Residual glucose concentration [10]: 45.3 g/L
- Butanol (25 nM, transfer 4): 11.87 g/L
- Butanol productivity [11]: 0.12 g butanol/L-h
- Butanol yield [11]: 0.20 g butanol/g/glucose
- Residual glucose concentration [11]: 0.1 g/L
- Butanol (25 nM, transfer 7): 9.09 g/L
- Butanol productivity [12]: 0.09 g butanol/L-h
- Butanol yield [12]: 0.15 g butanol/g/glucose
- Residual glucose concentration [12]: 0.1 g/L
- Butanol (25 nM, transfer 10): 12.83 g/L
- Butanol productivity [13]: 0.13 g butanol/L-h
- Butanol yield [13]: 0.22 g butanol/g/glucose
- Residual glucose concentration [13]: 0.1 g/L
- Butanol (25 nM, transfer 13): 9.97 g/L
- Butanol productivity [14]: 0.10 g butanol/L-h
- Butanol yield [14]: 0.17 g butanol/g/glucose
- Residual glucose concentration [14]: 0.1 g/L
- Butanol (25 nM, transfer 16): 11.66 g/L
- Butanol productivity [15]: 0.12 g butanol/L-h
- Butanol yield [15]: 0.20 g butanol/g/glucose
- Residual glucose concentration [15]: 0.1 g/L
- Butanol (25 nM, transfer 19): 4.37 g/L
- Butanol productivity [16]: 0.05 g butanol/L-h
- Butanol yield [16]: 0.07 g butanol/g/glucose
- Residual glucose concentration [16]: 48.1 g/L
- Butanol (25 nM, transfer 22): 7.12 g/L
- Butanol productivity [17]: 0.07 g butanol/L-h
- Butanol yield [17]: 0.12 g butanol/g/glucose
- Residual glucose concentration [17]: 45.7 g/L
- Butanol (25 nM, transfer 24): 5.06 g/L
- Butanol productivity [18]: 0.05 g butanol/L-h
- Butanol yield [18]: 0.08 g butanol/g/glucose
- Residual glucose concentration [18]: 48.5 g/L
- Butanol concentration [19]: 0.72 g/L
- Butanol productivity [19]: 0.01 g butanol/L-h
- Butanol yield [19]: 0.01 g butanol/g/glucose
- Residual glucose concentration [19]: 48.9 g/L
- Butanol concentration [20]: 1.41 g/L
- Butanol productivity [20]: 0.01 g butanol/L-h
- Butanol yield [20]: 0.02 g butanol/g/glucose
- Residual glucose concentration [20]: 43.2 g/L
- Butanol concentration [21]: 3.09 g/L
- Butanol productivity [21]: 0.03 g butanol/L-h
- Butanol yield [21]: 0.05 g butanol/g/glucose
- Residual glucose concentration [21]: 41.3 g/L
- Butanol concentration [22]: 7.69 g/L
- Butanol productivity [22]: 0.08 g butanol/L-h
- Butanol yield [22]: 0.13 g butanol/g/glucose
- Residual glucose concentration [22]: 0.5 g/L
- Butanol concentration [23]: 8.72 g/L
- Butanol productivity [23]: 0.09 g butanol/L-h
- Butanol yield [23]: 0.15 g butanol/g/glucose
- Residual glucose concentration [23]: 0.1 g/L
- Butanol concentration [24]: 10.70 g/L
- Butanol productivity [24]: 0.11 g butanol/L-h
- Butanol yield [24]: 0.18 g butanol/g/glucose
- Residual glucose concentration [24]: 0.1 g/L
- Butanol concentration [25]: 5.75 g/L
- Butanol productivity [25]: 0.06 g butanol/L-h
- Butanol yield [25]: 0.10 g butanol/g/glucose
- Residual glucose concentration [25]: 0.1 g/L
- Butanol concentration [26]: 4.54 g/L
- Butanol productivity [26]: 0.05 g butanol/L-h
- Butanol yield [26]: 0.08 g butanol/g/glucose
- Residual glucose concentration [26]: 0.1 g/L
- Butanol concentration [27]: 4.78 g/L
- Butanol productivity [27]: 0.05 g butanol/L-h
- Butanol yield [27]: 0.08 g butanol/g/glucose
- Residual glucose concentration [27]: 0.1 g/L
- Butanol (50 nM, transfer 1): 1.12 g/L
- Butanol productivity [28]: 0.01 g butanol/L-h
- Butanol yield [28]: 0.02 g butanol/g/glucose
- Residual glucose concentration [28]: 45.5 g/L
- Butanol (50 nM, transfer 4): 11.53 g/L
- Butanol productivity [29]: 0.12 g butanol/L-h
- Butanol yield [29]: 0.19 g butanol/g/glucose
- Residual glucose concentration [29]: 0.1 g/L
- Butanol (50 nM, transfer 7): 9.36 g/L
- Butanol productivity [30]: 0.10 g butanol/L-h
- Butanol yield [30]: 0.16 g butanol/g/glucose
- Residual glucose concentration [30]: 0.1 g/L
- Butanol (50 nM, transfer 10): 13.66 g/L
